Where two headings read alike, the source gives them in different places.
How the values were obtained:
[1] = system: Escherichia coli (E.coli) JC-2; test: In vitro sensitivity test (agar dilution method); assay type: cell-based; conditions: 37°C, 20 to 24 hours
Experimental: (§1) Survey of the sensitivity of the compound (I) to various strains of microorganisms was performed by a liquid dilution method […] an agar dilution method, in which the bacteria used were of animal origin and included the following strains (15 strains out of 11 bacteria): Chicken-origin strain: Mycoplasma gallisepticum (MG), Mycoplasma synoviae (MS), Hemophilus paragallinarum (H.pg) and Escherichia coli (E.coli); Pig-origin strain: Mycoplasma hyopneumoniae (Mh), Hemophilus pleuropneumonia (H.pp) and Bordetella bronchiseptica (B.br); Fish-origin strain: Pasteurella piscicida (P.pis) and Streptococcus sp (Str.sp); others: Escherichia coli (E. coli), Salmonella typhimurium (S.typhi) and Staphylococcus aureus (S.au).
(§2) Of these bacteria, the strains belonging to MG, MS and Mh were cultured at 37°C for 7 days by a liquid dilution method, of which the culture medium comprised: 12 % horse-serum added "PPLO" (agar manufactured by Difco) medium for MG; 12 % pig-serum, 0.01 % βNAD (nicotinamide adenine dinucleotide) added Frey medium for MS; 0.5 % lactoalbumin added Hank's solution, 10 % horse-serum, 0.5 % yeast extract (25 %) for Mh, and the agar dilution method was applied to the strains belonging to H.pg, H.pp, S.typhi, E.coli, S.au and B.br. Specifically, the H.pg strain was cultured in a 5 % chicken-serum added chicken bouillon medium and the H.pp strain was cultured in a heart infusion agar added with 10 % sheep defibered blood and 0.05 % βNAD. In case of the H.pg and P.pp strains, observation was made after cultivation at 37°C for 20 hours under 10 % CO₂. Mueller Hinton agar (Difco) was used for the strains belonging to S.typhi, E.coli, S.au and B.br, and observation was made after cultivation at 37°C for 20 to 24 hours. P.pis and Str.sp, both being of fish-origin, were respectively cultured at 25°C for 40 to 48 hours in a 1.5 % NaCl added heart infusion agar and in a sensitive disk medium.

[2] = system: Escherichia coli (E.coli) E-17, chicken-origin strain isolated from the field; test: In vitro sensitivity test (agar dilution method); assay type: cell-based; conditions: 37°C, 20 to 24 hours
Experimental: as §1, §2

[3] = system: Salmonella typhimurium (S.typhi) 13311; test: In vitro sensitivity test (agar dilution method); assay type: cell-based; conditions: 37°C, 20 to 24 hours
Experimental: as §1, §2

[4] = system: Staphylococcus aureus (S.au) 209P; test: In vitro sensitivity test (agar dilution method); assay type: cell-based; conditions: 37°C, 20 to 24 hours
Experimental: as §1, §2

[5] = system: Hemophilus paragallinarum (H.pg) 221; test: In vitro sensitivity test (agar dilution method); assay type: cell-based; conditions: agar dilution, 37°C, 20 hours, 10 % CO₂
Experimental: as §1, §2

[6] = system: Hemophilus paragallinarum (H.pg) S-1; test: In vitro sensitivity test (agar dilution method); assay type: cell-based; conditions: agar dilution, 37°C, 20 hours, 10 % CO₂
Experimental: as §1, §2

[7] = system: Bordetella bronchiseptica (B.br) ABU-1; test: In vitro sensitivity test (agar dilution method); assay type: cell-based; conditions: 37°C, 20 to 24 hours
Experimental: as §1, §2

[8] = system: Hemophilus pleuropneumonia (H.pp) M-1; test: In vitro sensitivity test (agar dilution method); assay type: cell-based; conditions: 37°C, 20 hours, 10 % CO₂
Experimental: as §1, §2

[9] = system: Streptococcus sp (Str.sp) SNO6119; test: In vitro sensitivity test; assay type: cell-based; conditions: 25°C, 40 to 48 hours
Experimental: as §1, §2

[10] = system: Pasteurella piscicida (P.pis) No. 2; test: In vitro sensitivity test; assay type: cell-based; conditions: 25°C, 40 to 48 hours
Experimental: as §1, §2

[11] = system: Mycoplasma gallisepticum (MG) T-7-T, TS-resistant strain isolated from the field; test: In vitro sensitivity test (liquid dilution method); assay type: cell-based; conditions: 37°C, 7 days
Experimental: as §1, §2

[12] = system: Mycoplasma gallisepticum (MG) S6; test: In vitro sensitivity test (liquid dilution method); assay type: cell-based; conditions: 37°C, 7 days
Experimental: as §1, §2

[13] = system: TS-resistant strain of MG; assay type: in vivo, chicken; conditions: for Infectious index Left air sack + / Infectious index Left air sack ++ / Infectious index Left air sack +++ / Infectious index Left air sack - / Infectious index Right air sack + / Infectious index Right air sack ++ / Infectious index Right air sack +++ / Infectious index Right air sack -: count of fowl; for Infectious index Left air sack + / Infectious index Left air sack ++ / Infectious index Left air sack +++ / Infectious index Left air sack - / Infectious index Right air sack + / Infectious index Right air sack ++ / Infectious index Right air sack +++ / Infectious index Right air sack - / Number of fowl having air sack lesions: 10-days chicken, 1.2 x 10³ CFU/fowl

CNC[C@@]12CCC[C@@H]1CN(c1cc3c(cc1F)c(=O)c(C(=O)O)cn3C1CC1)C2 (relative stereo) [I-1, 7-[(1R*,5S*)-1-methylaminomethyl-3-azabicyclo[3.3.0]octan-3-yl]-1-cyclopropyl-6-fluoro-1,4-dihydro-4-oxo-3-quinolinecarboxylic acid]
In vitro Sensitivity Test E.coli JC-2 [1]: 0.2 µg/mL
In vitro Sensitivity Test E.coli E-17 [2]: 0.2 µg/ml
In vitro Sensitivity Test S.typhi 13311 [3]: 0.2 µg/mL
In vitro Sensitivity Test S.au 209P [4]: 0.025 µg/mL
In vitro Sensitivity Test H.pg 221 [5]: 0.78 µg/mL
In vitro Sensitivity Test H.pg S-1 [6]: 0.78 µg/mL
In vitro Sensitivity Test B.br ABU-1 [7]: 12.5 µg/mL
In vitro Sensitivity Test H.pp M-1 [8]: 0.39 µg/mL
In vitro Sensitivity Test Str.sp SNO6119 [9]: 0.78 µg/mL
In vitro Sensitivity Test P.pis No. 2 [10]: 0.78 µg/mL
In vitro Sensitivity Test MG T-7-T [11]: 0.025 µg/mL
In vitro Sensitivity Test MG S6 [12]: 0.0125 µg/mL
Infectious index Left air sack + ([13]; oral 3.13 mg/kg): 1
Infectious index Left air sack ++ ([13]; oral 3.13 mg/kg): 0
Infectious index Left air sack +++ ([13]; oral 3.13 mg/kg): 0
Infectious index Left air sack - ([13]; oral 3.13 mg/kg): 4
Infectious index Right air sack + ([13]; oral 3.13 mg/kg): 1
Infectious index Right air sack ++ ([13]; oral 3.13 mg/kg): 3
Infectious index Right air sack +++ ([13]; oral 3.13 mg/kg): 1
Infectious index Right air sack - ([13]; oral 3.13 mg/kg): 0
Infectious index Left air sack + ([13]; oral 6.25 mg/kg): 0
Infectious index Left air sack ++ ([13]; oral 6.25 mg/kg): 0
Infectious index Left air sack +++ ([13]; oral 6.25 mg/kg): 0
Infectious index Left air sack - ([13]; oral 6.25 mg/kg): 5
Infectious index Right air sack + ([13]; oral 6.25 mg/kg): 3
Infectious index Right air sack ++ ([13]; oral 6.25 mg/kg): 1
Infectious index Right air sack +++ ([13]; oral 6.25 mg/kg): 0
Infectious index Right air sack - ([13]; oral 6.25 mg/kg): 1
Infectious index Left air sack + ([13]; oral 12.5 mg/kg): 0
Infectious index Left air sack ++ ([13]; oral 12.5 mg/kg): 0
Infectious index Left air sack +++ ([13]; oral 12.5 mg/kg): 0
Infectious index Left air sack - ([13]; oral 12.5 mg/kg): 5
Infectious index Right air sack + ([13]; oral 12.5 mg/kg): 0
Infectious index Right air sack ++ ([13]; oral 12.5 mg/kg): 1
Infectious index Right air sack +++ ([13]; oral 12.5 mg/kg): 0
Infectious index Right air sack - ([13]; oral 12.5 mg/kg): 4
Infectious index Left air sack + ([13]; oral 25.0 mg/kg): 0
Infectious index Left air sack ++ ([13]; oral 25.0 mg/kg): 0
Infectious index Left air sack +++ ([13]; oral 25.0 mg/kg): 0
Infectious index Left air sack - ([13]; oral 25.0 mg/kg): 5
Infectious index Right air sack + ([13]; oral 25.0 mg/kg): 0
Infectious index Right air sack ++ ([13]; oral 25.0 mg/kg): 0
Infectious index Right air sack +++ ([13]; oral 25.0 mg/kg): 0
Infectious index Right air sack - ([13]; oral 25.0 mg/kg): 5
antimicrobial activity compared with ERFX ([13]; in vivo, po): nearly equal potency to ERFX
Number of fowl having air sack lesions ([13]; oral 3.13 mg/kg): 5
Number of fowl having air sack lesions ([13]; oral 6.25 mg/kg): 4
Number of fowl having air sack lesions ([13]; oral 12.5 mg/kg): 1
Number of fowl having air sack lesions ([13]; oral 25.0 mg/kg): 0

— EP0429304A2, “Pyridone-carboxylic acid derivatives and their use as veterinary medicines” (SHIONOGI SEIYAKU KABUSHIKI KAISHA trading under the name of …, priority 1989, dated 1991)
